Experimental data published in publication PMC9704406 (Virulence, 2022).

System: Smh1
Type: biochemical, Legionella pneumophila
Settings: 50 µM TSA, 30 min preincubation; enzyme 156.25 ng/ml; inhibitor

Question: Which “HDAC-Glo I/II luminescence assay” value does the source give for `CC(/C=C/C(=O)NO)=C\[C@@H](C)C(=O)c1ccc(N(C)C)cc1` [Trichostatin A] here?
Answer: TSA significantly reduced Smh1 HDAC activity in comparison to Smh1 alone
